Reference: patent US6737383B1, “Herbicidal oxadiazolidines” (priority 1999, dated 2004)

Assays:
[1] = test system: bedstraw; assay: Test B pre/postemergence bedstraw; assay type: in vivo, Galium aparine; settings: Postemergence, Rate 500 g/ha; scale of 0 to 10 where 0 is no effect and 10 is complete control
How it was run: (§1)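 Test chemicals in a non-phytotoxic solvent mixture with surfactant were sprayed preemergence onto planted seeds and postemergence onto plants 2 to 18 cm tall (1- to 4-leaf stage). After twelve to sixteen days in a greenhouse, injury was visually rated against untreated controls from 0 (no effect) to 10 (complete control).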

[2] = test system: blackgrass; assay: Test B pre/postemergence blackgrass; assay type: in vivo, Alopecurus myosuroides
How it was run: as §1

[3] = test system: surinam grass; assay: Test B pre/postemergence surinam grass; assay type: in vivo, Brachiaria decumbens
How it was run: as §1

[4] = test system: cocklebur; assay: Test B pre/postemergence cocklebur; assay type: in vivo, Xanthium strumarium
How it was run: as §1

[5] = test system: corn; assay: Test B pre/postemergence corn; assay type: in vivo, Zea mays
How it was run: as §1

[6] = test system: giant foxtail; assay: Test B pre/postemergence giant foxtail; assay type: in vivo, Setaria faberii
How it was run: as §1

[7] = test system: morningglory; assay: Test B pre/postemergence morningglory; assay type: in vivo, Ipomoea hederacea
How it was run: as §1

[8] = test system: pigweed; assay: Test B pre/postemergence pigweed; assay type: in vivo, Amaranthus retroflexus
How it was run: as §1

[9] = test system: rape; assay: Test B pre/postemergence rape; assay type: in vivo, Brassica napus
How it was run: as §1

[10] = test system: soybean; assay: Test B pre/postemergence soybean; assay type: in vivo, Glycine max
How it was run: as §1

[11] = test system: sugar beet; assay: Test B pre/postemergence sugar beet; assay type: in vivo, Beta vulgaris
How it was run: as §1

[12] = test system: velvetleaf; assay: Test B pre/postemergence velvetleaf; assay type: in vivo, Abutilon theophrasti
How it was run: as §1

[13] = test system: wheat; assay: Test B pre/postemergence wheat; assay type: in vivo, Triticum aestivum
How it was run: as §1

[14] = test system: wild oat; assay: Test B pre/postemergence wild oat; assay type: in vivo, Avena fatua
How it was run: as §1

[15] = test system: rice; assay: Test B flood test rice; assay type: in vivo, Oryza sativa; settings: for Rice plant response rating: scale of 0 to 10 where 0 is no effect and 10 is complete control
How it was run: (§2)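 Read-out is a visual response score from 0 (no effect) to 10 (complete control), assigned by comparison with untreated controls. Treatment was applied at the 2-leaf stage, and plants stayed in the greenhouse for twelve to sixteen days before scoring.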

[16] = test system: smallflower flatsedge; assay: Test B flood test smallflower flatsedge; assay type: in vivo, Cyperus difformis; settings: for S. Flatsedge plant response rating: scale of 0 to 10 where 0 is no effect and 10 is complete control
How it was run: as §2

[17] = Postemergence, Rate 125 g/ha, scale 0 to 10, 0 is no effect, 10 is complete control
[18] = Postemergence, Rate 250 g/ha, scale 0 to 10, 0 is no effect, 10 is complete control
[19] = Postemergence, Rate 500 g/ha, scale of 0 to 10 where 0 is no effect and 10 is complete control
[20] = Preemergence, Rate 62 g/ha, scale 0 to 10 (0 no effect, 10 complete control)
[21] = Preemergence, Rate 125 g/ha, scale of 0 to 10 where 0 is no effect and 10 is complete control
[22] = Preemergence, Rate 250 g/ha, scale of 0 to 10 where 0 is no effect and 10 is complete control
[23] = Preemergence, Rate 500 g/ha, scale 0 to 10, 0 is no effect, 10 is complete control
[24] = Rate 62 g/ha, Postemergence, scale of 0 to 10 where 0 is no effect and 10 is complete control
[25] = Preemergence, Rate 250 g/ha, scale 0 to 10, 0 is no effect, 10 is complete control
[26] = Postemergence section (flood test species), Rate 500 g/ha
[27] = Rate 62 g/ha, Postemergence (flood test species)
[28] = flood test species, listed under Postemergence, Rate 250 g/ha, scale 0 to 10, 0 is no effect, 10 is complete control

CC(C)N(C(=O)n1oc(=O)n(CCCC(F)(F)F)c1=O)c1ccc(F)cc1 [Compound 398]
0: Blackgrass plant response rating [2, 24] | Plant response rating, B. signalgrass [3, 17] | Plant response rating, B. signalgrass [3, 20] | B. signalgrass plant response rating [3, 24] | Plant response rating, Cocklebur [4, 17] | Plant response rating, Cocklebur [4, 18] | Cocklebur plant response rating [4, 19] | Plant response rating, Cocklebur [4, 20] | Plant response rating, Cocklebur [4, 21] | Cocklebur plant response rating [4, 25] | Cocklebur plant response rating [4, 23] | Cocklebur plant response rating [4, 24] | Plant response rating, Corn [5, 17] | Plant response rating, Corn [5, 18] | Corn plant response rating [5, 19] | Plant response rating, Corn [5, 20] | Plant response rating, Corn [5, 21] | Corn plant response rating [5, 25] | Corn plant response rating [5, 24] | Plant response rating, Morningglory [7, 20] | Plant response rating, Morningglory [7, 21] | Morningglory plant response rating [7, 25] | Morningglory plant response rating [7, 23] | Redroot pigweed plant response rating [8, 24] | Plant response rating, Rape [9, 20] | Rape plant response rating [9, 24] | Plant response rating, Soybean [10, 20] | Plant response rating, Soybean [10, 21] | Soybean plant response rating [10, 25] | Soybean plant response rating [10, 23] | Plant response rating, Sugarbeets [11, 18] | Sugarbeets plant response rating [11, 19] | Plant response rating, Sugarbeets [11, 20] | Sugarbeets plant response rating [11, 24] | Plant response rating, Velvetleaf [12, 18] | Plant response rating, Velvetleaf [12, 20] | Velvetleaf plant response rating [12, 24] | Plant response rating, Wheat [13, 20] | Plant response rating, Wheat [13, 21] | Wheat plant response rating [13, 25] | Wheat plant response rating [13, 24] | Wild oats plant response rating [14, 19] | Plant response rating, Wild oats [14, 20] | Wild oats plant response rating [14, 24] | Rice plant response rating [15, 26] | Rice plant response rating [15, 27] | Plant response rating, Rice [15, 28] | S. Flatsedge plant response rating [16, 26] | S. Flatsedge plant response rating [16, 27] | Plant response rating, S. Flatsedge [16, 28]
4: Plant response rating, Soybean [10, 18] | Plant response rating, Sugarbeets [11, 21] | Sugarbeets plant response rating [11, 25]
8: Plant response rating, Blackgrass [2, 21] | Blackgrass plant response rating [2, 22] | B. signalgrass plant response rating [3, 19] | Corn plant response rating [5, 23] | Plant response rating, Giant foxtail [6, 17] | Morningglory plant response rating [7, 19] | Rape plant response rating [9, 25] | Wild oats plant response rating [14, 23]
7: Velvetleaf plant response rating [12, 23]
6: Plant response rating, Blackgrass [2, 17] | B. signalgrass plant response rating [3, 22] | Soybean plant response rating [10, 19] | Velvetleaf plant response rating [12, 25]
9: Bedstraw plant response rating [1] | Plant response rating, Blackgrass [2, 18] | Blackgrass plant response rating [2, 19] | Plant response rating, Giant foxtail [6, 18] | Giant foxtail plant response rating [6, 19] | Sugarbeets plant response rating [11, 23]
3: Plant response rating, Blackgrass [2, 20] | Giant foxtail plant response rating [6, 24] | Plant response rating, Morningglory [7, 18] | Plant response rating, Redroot pigweed [8, 18] | Plant response rating, Rape [9, 21] | Soybean plant response rating [10, 24] | Wheat plant response rating [13, 19] | Plant response rating, Wild oats [14, 21] | Wild oats plant response rating [14, 25]
5: Redroot pigweed plant response rating [8, 19] | Plant response rating, Redroot pigweed [8, 21] | Velvetleaf plant response rating [12, 19]
2: Plant response rating, B. signalgrass [3, 18] | Plant response rating, B. signalgrass [3, 21] | Morningglory plant response rating [7, 24] | Plant response rating, Redroot pigweed [8, 20] | Plant response rating, Rape [9, 18] | Rape plant response rating [9, 19] | Plant response rating, Velvetleaf [12, 21] | Wheat plant response rating [13, 23]
10: Blackgrass plant response rating [2, 23] | B. signalgrass plant response rating ([3]; Preemergence, Rate 500 g/ha, scale of 0 to 10 where 0 is no effect and 10 is complete control) | Plant response rating, Giant foxtail [6, 20] | Plant response rating, Giant foxtail [6, 21] | Giant foxtail plant response rating [6, 25] | Giant foxtail plant response rating [6, 23] | Redroot pigweed plant response rating [8, 25] | Redroot pigweed plant response rating [8, 23] | Rape plant response rating [9, 23]
